In patent US20060188938A1, “Compounds for inhibiting beta-amyloid production and methods of identifying the compounds” (priority 2005, published 2006):

With `C=CCOC(=O)C1=C(C)NC(C)=C(C(=O)OCC=C)C1c1ccc(Br)cc1` [Example 40, Diallyl 4-(4-bromophenyl)-1,4-dihydro-2,6-dimethylpyridine-3,5-dicarboxylate] the melting point was 130 to 131 °C. Compound `CCOC(=O)C1=C(C)NC(C)=C(C(=O)OCC)C1c1ccccc1I` [Example 18, Diethyl 1,4-dihydro-4-(2-iodophenyl)-2,6-dimethylpyridine-3,5-dicarboxylate] has a melting point of 173 to 174.5 °C. In the case of `CC1=C(C(=O)OC(C)(C)C)C(c2cccc(F)c2)C(C(=O)OC(C)(C)C)=C(C)N1` [Example 50, Di-tert-butyl 4-(3-fluorophenyl)-1,4-dihydro-2,6-dimethylpyridine-3,5-dicarboxylate], the melting point is reported as 178 to 179 °C. For `CCOC(=O)C1=C(C)NC(C)=C(C(=O)OCC)C1c1cc(Cl)ccc1Cl` [Example 34, Diethyl 4-(2,5-dichlorophenyl)-1,4-dihydro-2,6-dimethylpyridine-3,5-dicarboxylate], the melting point was 166.5 to 167.5 °C. Work on `CCOC(=O)C1=C(C)NC(C)=C(C(=O)OCC)C1c1ccccc1Br` [Example 11, Diethyl 4-(2-bromophenyl)-1,4-dihydro-2,6-dimethylpyridine-3,5-dicarboxylate] yielded a melting point of 144 to 145 °C. `CCOC(=O)C1=C(C)NC(C)=C(C(=O)OCC)C1c1ccc(F)cc1` [Example 51, Diethyl 4-(4-fluorophenyl)-1,4-dihydro-2,6-dimethylpyridine-3,5-dicarboxylate] showed a melting point of 150 to 151 °C. Work on `CC1=C(C(=O)OC(C)(C)C)C(c2ccccc2[N+](=O)[O-])C(C(=O)OC(C)(C)C)=C(C)N1` [Example 15, Di-tert-butyl 1,4-dihydro-2,6-dimethyl-4-(2-nitrophenyl)pyridine-3,5-dicarboxylate] yielded a melting point of 159 to 161 °C. For `CC1=C(C(=O)OC(C)(C)C)C(c2ccc(F)cc2)C(C(=O)OC(C)(C)C)=C(C)N1` [Example 52, Di-tert-butyl 4-(4-fluorophenyl)-1,4-dihydro-2,6-dimethylpyridine-3,5-dicarboxylate], the melting point was 149 to 150 °C. With `CCOC(=O)C1=C(C)N(Cc2ccccc2)C(C)=C(C(=O)OCC)C1c1ccc(Br)cc1` [Example 54, Diethyl 1-benzyl-4-(4-bromophenyl)-1,4-dihydro-2,6-dimethylpyridine-3,5-dicarboxylate] the melting point was 168 to 169 °C. For `CC1=C(C(=O)OC(C)(C)C)C(c2ccc(C)cc2C)C(C(=O)OC(C)(C)C)=C(C)N1` [Example 55, Di-tert-butyl 1,4-dihydro-2,6-dimethyl-4-(2,4-dimethylphenyl)pyridine-3,5-dicarboxylate], the melting point was 197 to 198 °C. `COCCOC(=O)C1=C(C)NC(C)=C(C(=O)OCCOC)C1c1ccccc1Cl` [Example 10, Bis(2-methoxyethyl) 4-(2-chlorophenyl)-1,4-dihydro-2,6-dimethylpyridine-3,5-dicarboxylate] showed a melting point of 120 to 121 °C. With `CC1=C(C(=O)OC(C)(C)C)C(c2cc(Cl)ccc2Cl)C(C(=O)OC(C)(C)C)=C(C)N1` [Example 35, Di-tert-butyl 4-(2,5-dichlorophenyl)-1,4-dihydro-2,6-dimethylpyridine-3,5-dicarboxylate] the melting point was 181 to 183 °C. In the case of `CC1=C(C(=O)OC(C)(C)C)C(c2ccccc2I)C(C(=O)OC(C)(C)C)=C(C)N1` [Example 28, Di-tert-butyl 1,4-dihydro-4-(2-iodophenyl)-2.6-dimethylpyridine-3,5-dicarboxylate], the melting point is reported as 184 to 185 °C. In the case of `CCOC(=O)C1=C(C)NC(C)=C(C(=O)OCC)C1c1cc(Cl)cc(Cl)c1` [Example 37, Diethyl 4-(3,5-dichlorophenyl)-1,4-dihydro-2,6-dimethylpyridine-3,5-dicarboxylate], the melting point is reported as 102 to 104 °C. `COC(=O)C1=C(C)NC(C)=C(C(C)=O)C1c1ccccc1Cl` (stereo not shown) [Example 57, Methyl 5-acetyl-4-(2-chlorophenyl)-1,4-dihydro-2,6-dimethylpyridine-3-carboxylate] gave a melting point of 183 to 184 °C. Work on `CCOC(=O)C1=C(C)NC(C)=C(C(=O)OCC)C1c1ccccc1F` [Example 12, Diethyl 4-(2-fluorophenyl)-1,4-dihydro-2,6-dimethylpyridine-3,5-dicarboxylate] yielded a melting point of 151 to 152.5 °C. In the case of `COC(=O)C1=C(C)NC(C)=C(C(=O)OC)C1c1ccccc1Br` [Example 19, Dimethyl 4-(2-bromophenyl)-1,4-dihydro-2,6-dimethylpyridine-3,5-dicarboxylate], the melting point is reported as 164 to 165 °C. Compound `CCOC(=O)C1=C(C)NC(C)=C(C(=O)OCC)C1c1ccc(Cl)cc1` [Example 22, Diethyl 4-(4-chlorophenyl)-1,4-dihydro-2,6-dimethylpyridine-3,5-dicarboxylate] has a melting point of 151 to 152 °C. For `COC(=O)C1=C(C)NC(C)=C(C(=O)OC)C1c1ccccc1Cl` [Example 8, Dimethyl 4-(2-chlorophenyl)-1,4-dihydro-2,6-dimethylpyridine-3,5-dicarboxylate], the melting point was 188 to 189 °C. In the case of `CC1=C(C(=O)OC(C)(C)C)C(c2ccccc2Cl)C(C(=O)OC(C)(C)C)=C(C)N1` [Example 9, Di-tert-butyl 4-(2-chlorophenyl)-1,4-dihydro-2,6-dimethylpyridine-3,5-dicarboxylate], the melting point is reported as 194 to 196 °C. For `CC1=C(C(=O)OC(C)(C)C)C(c2cc(Br)ccc2F)C(C(=O)OC(C)(C)C)=C(C)N1` [Example 48, Di-tert-butyl 4-(5-bromo-2-fluorophenyl)-1,4-dihydro-2,6-dimethylpyridine-3,5-dicarboxylate], the melting point was 173 to 174 °C. `CC1=C(C(=O)OC(C)(C)C)C(c2ccccc2Br)C(C(=O)OC(C)(C)C)=C(C)N1` [Example 14, Di-tert-butyl 4-(2-bromophenyl)-1,4-dihydro-2,6-dimethylpyridine-3,5-dicarboxylate] showed a melting point of 162 to 164 °C. Work on `CC1=C(C(=O)OC(C)(C)C)C(c2ccc(F)c(Br)c2)C(C(=O)OC(C)(C)C)=C(C)N1` [Example 42, Di-tert-butyl 4-(3-bromo-4-fluorophenyl)-1,4-dihydro-2,6-dimethylpyridine-3,5-dicarboxylate] yielded a melting point of 171 to 172 °C. Compound `COCC1=C(C(=O)OC)C(c2ccccc2Cl)C(C(=O)OC)=C(COC)N1` [Example 17, Dimethyl 4-(2-chlorophenyl)-1,4-dihydro-2,6-bis(methoxymethyl)pyridine-3,5-dicarboxylate] has a melting point of 137 to 138 °C. With `CCOC(=O)C1=C(C)NC(C)=C(C(=O)OCC)C1c1c(Cl)cccc1Cl` [Example 36, Diethyl 4-(2,6-dichlorophenyl)-1,4-dihydro-2,6-dimethylpyridine-3,5-dicarboxylate] the melting point was 134 to 135 °C. With `COCCOC(=O)C1=C(C)NC(C)=C(C(=O)OCCOC)C1c1ccc(Br)cc1` [Example 46, Bis(2-methoxyethyl) 4-(4-bromophenyl)-1,4-dihydro-2,6-dimethylpyridine-3,5-dicarboxylate] the melting point was 116 to 117 °C. Work on `CC1=C(C(=O)OC(C)(C)C)C(c2cccc(Br)c2)C(C(=O)OC(C)(C)C)=C(C)N1` [Example 25, Di-tert-butyl 4-(3-bromophenyl)-1,4-dihydro-2,6-dimethylpyridine-3,5-dicarboxylate] yielded a melting point of 195 to 196 °C. With `C=CCOC(=O)C1=C(C)NC(C)=C(C(=O)OCC=C)C1c1ccccc1Cl` [Example 16, Diallyl 4-(2-chlorophenyl)-1,4-dihydro-2,6-dimethylpyridine-3,5-dicarboxylate] the melting point was 98 to 99 °C.
